{"source": "patent US20060019883A1", "about": "“Use of cyclin D1 inhibitors” (priority 2003, published 2006)", "tested_on": "ER-positive breast cancer", "assay": "Randomised clinical trial: 2 years of tamoxifen treatment or no adjuvant treatment, breast cancer specific survival in relation to cyclin D1", "assay_type": "in vivo, patients", "conditions": "for Median survival time of deceased patients / Mortality rate: tumours with >90% ER positive cells", "description": "The breast cancer material used in this study initially included 168 post-menopausal (>55 years old) patients with small (T0-T1) node-negative (N0) tumours. […] Data regarding breast cancer specific survival was obtained from the Swedish Cancer Registry (2002) resulting in a mean follow-up time of 18 years (range 15-22 years). Representative parts of the tumours were assembled in a tissue array, sectioned and immunohistochemically stained for ER (antibodies M7047 from Dako, Denmark, diluted 1/200) and cyclin D1 (M7155, Dako, Denmark, 1/100). […] The alternative model is that cyclin D1 could sequester cdk-inhibitors thereby effecting the G1/S control and tamoxifen response.\nE: Cumulative total survival in the patient group of cyclin D1 high breast cancer subdivided according to tamoxifen treatment or nor treatment.", "key": {"[1]": {"conditions": "High CD1 and tamoxifen treatment"}, "[2]": {"conditions": "Moderate/low CD1 and tamoxifen treatment"}}, "note": "Entries after “also recorded” stand apart in the source; their conditions may differ.", "data": [{"smiles": "CC/C(=C(\\c1ccccc1)c1ccc(OCCN(C)C)cc1)c1ccccc1", "note": "[tamoxifen]", "values": [{"measurement": "Difference in survival for tamoxifen in comparison to no treatment", "setting": "102 tumours with >90% ER positive cells", "result": "marked difference in survival"}, {"measurement": "Median survival time of deceased patients", "setting": "[1]", "result": 47, "unit": "months*"}, {"measurement": "Mortality rate", "setting": "[1]", "result": 39, "unit": "%"}, {"measurement": "Median survival time of deceased patients", "setting": "[2]", "result": 169, "unit": "months"}, {"measurement": "Mortality rate", "setting": "[2]", "result": 63, "unit": "%"}, {"measurement": "Difference in survival for tamoxifen in comparison to no treatment", "setting": "tumours lacking or expressing low ER and tumours with 10-90% ER positive cells", "result": "did not show any significant difference in survival"}, {"measurement": "Difference in survival between tamoxifen and no treatment", "setting": "tumours with high cyclin D1", "result": "this difference was eliminated; also recorded: little or no effect"}]}]}
